Data reported in patent publication US7056734B1, “Differentiation of non-insulin producing cells into insulin producing cells by GLP-1 or exendin-4 and uses thereof” (The United States of America as represented by the …, priority 1998, dated 2006).

Columns and labels:
pancreata = test: Proliferation and differentiation of pancreatic cells after GLP-1 infusion or exendin-4 injection; assay type: in vivo, rat; conditions: for total number of insulin positive cells: GLP-1 continuous infusion or exendin-4 repeated ip injection for at least two days; for time of maximal differentiation effect: GLP-1 continuous infusion, exendin-4 daily bolus; for persistence of increased number of insulin producing cells after treatment is discontinued: rat, in vivo
Description: Exendin-4, in contrast, was administered intraperitoneally one time daily for five days according to the protocol of Example 2.

AR42J cells [1] = test: Immunocytochemistry of insulin- and glucagon-positive AR42J cells; assay type: cell-based, rat
Description: Cell culture. AR42J cells were maintained in Dulbecco's modified Eagle's medium (DMEM) supplemented with 10% fetal calf serum (FBS), 100 IU/ml penicillin, 100 μg/ml streptomycin and 2 mM glutamine. Cells from passage 23–35 were used throughout this study. Cells were routinely plated at a density of about 10^5 cells/ml in 12-well cluster dishes or on coverslips and incubated in a humidified incubator at 37° C. with 95% air and 5% CO2.
Immunocytochemistry analysis. Cells were cultured on glass coverslips, washed with phosphate buffered saline (PBS) to remove serum, and fixed with 0.5% glutaraldehyde in PBS. Cells were permeabilized with 0.2% Triton X-100 for 5 min and the rest of the procedure was carried out at room temperature in a humidified chamber. Suction was used to remove reagents between each step but drying of specimens was avoided. Sufficient reagent was used to cover each specimen (approximately 1 or 2 drops was usually adequate). The coverslips were incubated in 0.3% H2O2 in PBS for 30 min to quench endogenous peroxidase activity and washed in PBS×3 times, followed by incubation with 2% goat serum in PBS for 30 min to block non-specific binding of IgG. Excess serum was removed by blotting. The specific primary polyclonal antisera (anti-insulin 1:300; anti-glucagon 1:300) were used. Antibody was diluted in PBS containing 1% goat serum. This was applied to the coverslip and incubated at room temperature for 1 h. The coverslips were washed ×3 times in PBS, each time for 5 min, then incubated with biotinylated second antibody for 1 h and washed ×3 times with PBS. Avidin-biotin-peroxidase complex in PBS was applied for 30 min. Immunoperoxidase labeling was performed with a Vectostain ABC kit (Vector Labs, Burlingame, Calif.). After extensive washing in PBS for 4–5 times (each 5 min), the coverslips were incubated in diaminobenzidine tetrahydrochloride (DAB) in PBS, with 0.01% hydrogen peroxide for 3 min. The reaction was stopped by washing the coverslips in PBS and examined under a light microscope. To confirm specific staining, samples incubated with preabsorbed primary antibody were used as negative control, and the insulin producing cell line RIN 1046-38 cells were used as positive control for our experiments. The avidin-biotin-peroxidase (ABC) procedure was performed according to methods known in the art (Hsu et al., 1981).

diabetic mice = test: Preliminary ip and sc injections, duration of blood sugar lowering; assay type: in vivo, mouse; conditions: for blood sugars 24 hours after ip and sc injections: preliminary experiments
Description: Effects of chronic treatment with exendin-4 in mice. The biological activity of exendin-4, as measured by its ability to lower blood sugar, was much longer than we expected when given ip or subcutaneously to diabetic animals. […] This lead us to design a long-term experiment with exendin-4. At the initiation of the daily ip exendin-4 regimen in the mice fasting blood glucose was 145±51 mg/dl in the non-diabetic mice and 232±38 mg/dl in the diabetic mice. […] Glucose levels dropped to 90±11 mg/dl in the exendin-4-treated animals from 238±51 mg/dl (p<0.002) in the NaCl-treated animals (Table 1). We measured fasting insulin levels in the diabetic animals that received NaCl or exendin-4. They were higher in the animals that received exendin-4 (p<0.002). […] We surmised that the decreased urination in the exendin-4-treated diabetic mice was due to less osmotic diuresis because of lower blood glucose.
This was possibly due to greater variation in the sc technique and perhaps even loss of the peptide during injections in some cases.

ERK = test: MAP kinase (ERK) activity in AR42J cells; assay type: cell-based, rat; conditions: 3 days; for ERK (MAP kinase) activity: GLP-1 10 nM, exendin-4 0.1 nM
Description: MAP Kinase Activity. After treatment, 60 mm dishes of 80% confluent cells were lysed at 4° C. in lysis buffer (in mM): 50 TRIS-HCl, PH 8, 150 NaCl, 5 EDTA, 1% NP-40, 0.25% sodium deoxycholate, 1 NaF, 10 sodium pyrophosphate, 0.1 PMSF, 1 sodium orthovanadate, 20 μg/ml aprotinin, and 10 μg/ml leupeptin. The cell lysate was clarified by centrifugation at 16,000×g at 4° C. for 20 min. The clarified cell lysate was immunoprecipitated overnight at 4° C., rotating with 4.5 μg of ERK1-CT antibody and 40 μl of packed protein G+protein A agarose resin (Oncogene Research Product, Cambridge, Mass.). The immune pellet was assayed for MAPK activity using MBP as the substrate. MBP (18.6 μg) was phosphorylated at 20° C. for 10 min in a final volume of 60 μl containing 20 mM Hepes, PH 7.4, 10 mM MgCl2, 1 mM DTT, 20 uM unlabeled ATP and 40 μCi (3,000 Ci/mmol) [^32P]-ATP. The reaction was terminated by the addition of 25 μl of 3× Laemmli sample buffer and heating at 70° C. for 10 min. MAPK activity was assessed by SDS-PAGE and auto-radiography. The autoradiograms were quantified by densitometry.

AR42J cells [2] = test: Intracellular cAMP in AR42J cells; assay type: cell-based, rat; conditions: 1 h; GLP-1 0.1 to 100 nM, IBMX 100 nM, CCK 0.1 to 100 nM, exendin-4 0.1 to 10 nM
Description: Measurement of cAMP. Cells were grown in 12-well dishes and treated with hormones and reagents±IBMX as described above. They were then washed 3 times in ice-cold PBS and lysed with 1 ml ice-cold […] perchloric acid. The lysates (950 μl) were transferred to microcentrifuge tubes and the pH adjusted to 7.0 using 5 M K2CO3. After centrifugation for 5 min at 10^4 rpm, the supernatant was vacuum dried, and then recovered in 200 μl Tris/EDTA buffer. After addition of 0.15 mM Na2CO3 (50 μl) and 0.15 mM ZnSO^4 (50 μl), followed by incubation for 15 min on ice, the salt precipitate was removed by centrifugation for 15 min at 3.5×10^3 rpm and 50 μl of supernatant was assayed using a cAMP [^3] assay kit (Amersham Corp., Arlington Heights, Ill.), (Steiner et al., 1972).

[3] = 10 nM GLP-1 or 0.1 nM exendin-4, 3 days

For `CC[C@H](C)[C@H](NC(=O)[C@H](Cc1ccccc1)NC(=O)[C@H](CCC(=O)O)NC(=O)[C@H](CCCCN)NC(=O)[C@H](C)NC(=O)[C@H](C)NC(=O)[C@H](CCC(N)=O)NC(=O)CNC(=O)[C@H](CCC(=O)O)NC(=O)[C@H](CC(C)C)NC(=O)[C@H](Cc1ccc(O)cc1)NC(=O)[C@H](CO)NC(=O)[C@H](CO)NC(=O)[C@@H](NC(=O)[C@H](CC(=O)O)NC(=O)[C@H](CO)NC(=O)[C@@H](NC(=O)[C@H](Cc1ccccc1)NC(=O)[C@@H](NC(=O)CNC(=O)[C@H](CCC(=O)O)NC(=O)[C@H](C)NC(=O)[C@@H](N)Cc1c[nH]cn1)[C@@H](C)O)[C@@H](C)O)C(C)C)C(=O)N[C@@H](C)C(=O)N[C@@H](Cc1c[nH]c2ccccc12)C(=O)N[C@@H](CC(C)C)C(=O)N[C@H](C(=O)N[C@@H](CCCCN)C(=O)NCC(=O)N[C@@H](CCCNC(=N)N)C(N)=O)C(C)C` [GLP-1], the “total number of insulin positive cells” value (pancreata) was “increase in total number of insulin positive cells”, the “time of maximal differentiation effect” value (pancreata) was “seven days” and the “earliest time at which differentiation effect was observed” value (pancreata; continuous infusion) was 1 days. The “cells in treated pancreata positive for PCNA” value (pancreata; continuous infusion, five days) was “Approximately 20%”, the “persistence of increased number of insulin producing cells after treatment is discontinued” value (pancreata) was “at least two weeks” and the “AR42J cells converted into insulin-positive cells” value (AR42J cells [1]; 1 nM GLP-1, 3 days) was about 10%. For the same molecule, the “AR42J cells converted into insulin-positive cells” value (AR42J cells [1]; [3]) was about 25%, the “treated AR42J cells glucagon positive” value (AR42J cells [1]; 48 h, GLP-1 (10 nM)) was 20% and the “treated AR42J cells insulin-positive” value (AR42J cells [1]; 48 h, GLP-1 (10 nM)) was about 6%. The “treated cells containing glucagon” value (AR42J cells [1]; 72 h, GLP-1 (10 nM)) was “fully half”, the cells remaining insulin-positive (AR42J cells [1]; for at least 7 days, GLP-1 (10 nM)) was about 25% and the “blood sugars 24 hours after ip and sc injections” value (diabetic mice) was “back to baseline”. For the same molecule, the “ERK (MAP kinase) activity” value (ERK) was “markedly increased” and the “intracellular cAMP levels” value (AR42J cells [2]) was “not altered”.
For exendin-4, the “total number of insulin positive cells” value (pancreata) was “increase in total number of insulin positive cells”, the “time of maximal differentiation effect” value (pancreata) was “seven days” and the “persistence of increased number of insulin producing cells after treatment is discontinued” value (pancreata) was “at least two weeks”. The “AR42J cells converted into insulin-positive cells” value (AR42J cells [1]; [3]) was about 25%, the “lowest concentration at which some insulin-containing cells were seen” value (AR42J cells [1]; AR42J cells) was 10^−11 molar and the “duration of lower blood sugars after an ip dose” value (diabetic mice) was “up to 24 hours”. The “blood sugars 24 hours after ip and sc injections” value (diabetic mice) was “lower blood sugars”, the “potency on ERK activation relative to GLP-1” value (ERK) was “about 100 fold” and the “ERK (MAP kinase) activity” value (ERK) was “markedly increased”. For the same molecule, the “intracellular cAMP levels” value (AR42J cells [2]) was “did not alter”.
